The text below walks through data of US9358305B2, “Targeted carriers for drug delivery across the gastrointestinal epithelium” (University of Maryland, College Park, priority 2009, dated 2016).

One data set relates to Caco-2 monolayers. The experiment in a line: Transport of 125I-labelled carriers across Caco-2 monolayers on permeable inserts. It is filed as in vitro ADME, human. For orientation: Caco-2 cells form a polarised layer with tight junctions and transporters.
The next data set concerns ICAM-1 on HUVEC. The experiment in a line: Leukocyte transmigration across TNF-activated HUVEC monolayer in transwell. It is filed as cell-based, human. As to conditions: compared to albumin, scrambled peptide and LB2 controls. Here is the method: Human endothelial cells (human umbilical vein endothelial cells (HUVECs)) were grown until formation of a continuous confluent monolayer in a transwell filter located between upper and lower chambers. The cells were then treated with tumor necrosis factor alpha to mimic inflammatory activation of endothelial cells and SDF1a was added to the lower chamber to generate a gradient to attract white blood cells, as during inflammation. Lymphocytes isolated from human peripheral blood were activated with interleukin 2 and added to the upper chamber above endothelial cells in the absence (control) or presence of ICAM-1-targeting peptides A1, B7, B8, B9, B10, or D6. Albumin or a peptide of scrambled sequence were used as negative controls which should not block inflammatory transmigration of leukocytes across endothelial cells. The anti-ICAM antibody LB2, which is known to block leukocyte adhesion to ICAM-1, was used as a positive control which should block such transmigration.
Leukocytes which transmigrated to the lower chamber below endothelial cells were counted to assess their transmigration. FIG. 9 provides a graph of the resulting leukocyte transmigration as a percentage of the control. The peptides annotated with an asterisk in FIG. 9 indicate that the peptide was effective in statistically significant blockage of leukocyte transmigration across endothelial cells.

In the next data set the test system is mouse endothelial cells. The data set is described as follows: Endocytosis of peptide phages by mouse endothelial cells. The class given is cell-based. The following applies: for Internalization of phage viruses by endothelial cells: phages expressing 5 copies of the peptide, 37° C., 1 h. From the text:
(§1) (A) ELISA measurement of the binding of 7-mer peptide expressing phage library to immobilized recombinant ICAM-1 (consisting of the two most membrane-distal Ig domains—1 and 2—of mouse ICAM-1 fused to human Fc or hFc), versus their binding to control hFc. (B) Relative specificity and (C) relative affinity of ICAM-1-targeting peptide phages, determined by ELISA from the experiment in (A). (D) Relative binding of phages expressing 7-mer peptides to native ICAM-1 expressed on the surface of HV5 mouse endothelial cells, either control or activated with TNFalpha to mimic a disease phenotype. Binding was determined by microscopy using a fluorescently-labeled antibody to the phage capsid. The line in the graph indicates the level of binding of A1 phage to 293 cells, which are voided of ICAM-1-expression. (E, F) Endocytosis (1 h, 37° C.) of phages expressing 7-mer peptides by control mouse endothelial cells (E) or mouse endothelial cells incubated in the presence of 3 mM amiloride (F) was estimated by microscopy after staining surface-located phages with a Texas red-labeled antibody to the viral capsid, following by cell permeabilization and staining of all (surface and internalized) phages using a FITC-labeled antibody to the viral capsid. (G) Binding of FITC-labeled anti-ICAM polystyrene nanocarriers to human endothelial cells was evaluated by fluorescence microscopy after incubation with cells in the absence (100% level) or presence of anti-ICAM antibody, ICAM-1-targeting synthetic peptides, or peptides with their scramble sequence (e.g., A1sc).

In another data set the test system is Caco-2 cells. The data set is described as follows: Endocytosis of anti-ICAM carriers by Caco-2 cells. As to conditions: TNF-α-treated Caco-2, 1 h, 37° C. It is filed as cell-based, human. Here is the method:
Furthermore the ability of anti-ICAM carriers to be endocytosed by Caco-2 cells was examined. FITC-labeled anti-ICAM carriers were first incubated with cells for 30 min to allow binding, then non-bound carriers were washed and cells were incubated for varying times to allow carrier uptake. After cell fixation, surface-bound carriers were stained with Texas Red secondary antibody. […] Data are shown as means±S.E.M. (n≧20). […] Internalization was highly efficient: approximately 90% of the carriers bound to cells were internalized, which represents ˜60 carriers per cell.
The mechanism of uptake for Caco-2 cells treated with amiloride, a known inhibitor of CAM-mediated endocytosis (Muro et al., 2003), was examined. TNF-α-treated Caco-2 cells were incubated with FITC-labeled anti-ICAM carriers in the presence or absence of amiloride (1 h, 37° C.), and surface-bound carriers were stained with TxR goat anti-mouse. […] Upper panels of FIG. 14A show total carriers associated to cells, whereas lower panels show the fraction of surface-bound, non-internalized carriers. (Magnification bar=10 μm.) The fluorescence microscopy images were analyzed for the ratio of internalized carriers to surface-bound carriers, expressed as % internalization and normalized to the control. (FIG. 14B; Data are shown as means±S.E.M. (n≧20). *, p<0.001 by Student's t test.)

The test system of another data set is HUVEC. The experiment in a line: Lysosomal transport of peptide-coated carriers in HUVEC. It is filed as cell-based, human. As to conditions: for Binding, internalization and lysosomal transport of carriers: 37° C., co-localization with dextran-labeled lysosomes, carriers coated with the peptide. Here is the method: (§2) (A) The peptide γ3 was absorbed on the surface of 100 nm FITC-labeled polystyrene carriers and the resulting products were incubated for 15 min on nitrocellulose-immobilized albumin vs human or mouse ICAM-1 chimeras containing ICAM-1-Ig domains 1 and 2 fused to human Fc sequence. The membranes were washed and analyzed by fluorescence microscopy to quantify the number of carriers bound per area. Data are expressed relative to non-specific binding of γ3 carriers to albumin controls (dotted line). A comparison to binding of anti-ICAM carriers is provided (dashed line). (B) Binding of FITC-labeled polystyrene carriers coated by absorption with the peptide γ3 and recombinant acid sphingomyelinase (ASM, a therapeutic enzyme) to activated HUVEC (bars) vs ICAM-1-negative 293 cells (dotted line) was quantified by fluorescence microscopy after 1 h incubation at 37° C., in the absence or presence of excess γ3, anti-ICAM, γ3 scramble peptide, or mannose 6 phosphate (M6P). Data is shown relative to HUVEC binding of γ3/ASM carriers (134±11 particles/cell). (C) HUVEC lysosomes were labeled for 2 h with Texas-red dextran at 37° C. Cells were then incubated for 30 min at 37° C. with FITC-labeled γ3/ASM carriers, non-bound carriers were washed, and incubation was continued up to 1, 2, or 3 h. Co-localization of FITC carriers with Texas-red dextran-lysosomes was quantified by fluorescence microscopy. (D) Comparison of lysosomal transport of 100 nm FITC-labeled polystyrene carriers coated with either ICAM-1-targeting peptide γ3 vs its derivatives 2γ3 and 3γ3. (E) Activated HUVEC were incubated for 30 min at 37° C. in the presence of FITC-labeled 2γ3 polystyrene carriers after 15 min pre-treatment with 3 mM amiloride to block ICAM-1-mediated endocytosis, or 0.1 μM PMA to activate PKC and promote ICAM-1-mediated endocytosis. Co-localization of FITC 2γ3 carriers with Texas red dextran-labeled lysosomes was assessed by microscopy 3 h post-internalization. Mean±SEM; n=2 assays. **p<0.005, ***p<0.001, by student's t test.

The target in data set [1] is T1, ICAM-1 on human endothelial cells (Homo sapiens, UniProt P05362).
T1 construct: endogenous in cells
T1 sequence (P05362 28-532): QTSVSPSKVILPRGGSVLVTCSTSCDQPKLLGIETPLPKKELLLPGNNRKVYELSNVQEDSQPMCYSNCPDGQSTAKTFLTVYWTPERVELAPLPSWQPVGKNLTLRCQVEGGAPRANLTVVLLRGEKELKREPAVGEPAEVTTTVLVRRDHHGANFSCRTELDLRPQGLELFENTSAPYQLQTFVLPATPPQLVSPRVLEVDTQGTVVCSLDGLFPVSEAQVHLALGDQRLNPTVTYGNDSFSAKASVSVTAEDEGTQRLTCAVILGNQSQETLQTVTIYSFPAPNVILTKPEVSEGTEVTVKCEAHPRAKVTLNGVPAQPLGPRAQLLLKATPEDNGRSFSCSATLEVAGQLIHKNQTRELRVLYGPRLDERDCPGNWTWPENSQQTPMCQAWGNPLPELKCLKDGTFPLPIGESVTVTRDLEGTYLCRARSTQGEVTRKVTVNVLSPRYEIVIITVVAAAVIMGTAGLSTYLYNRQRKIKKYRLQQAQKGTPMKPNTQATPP
The experiment in a line: Competition of binding of anti-ICAM nanocarriers to human endothelial cells by synthetic peptides. The class given is cell-based.
Text: as §1

For data set [2], the target named is T2, native ICAM-1 expressed by activated HUVEC (Homo sapiens, UniProt P05362).
T2 construct: endogenous in cells
T2 sequence (P05362 28-532): as above
The experiment in a line: Binding of γ3/ASM carriers to activated HUVEC, with or without excess competitor. As to conditions: 1 h, 37° C. It is filed as cell-based. Here is the method: as §2, with “Cells were then incubated for 30 min at 37° C. with FITC-labeled γ3/ASM carriers, non-bound carriers were washed, and incubation was continued up to 1, 2, or 3 h.” left out, “(D) Comparison of lysosomal transport of 100 nm FITC-labeled polystyrene carriers coated with either ICAM-1-targeting peptide γ3 vs its derivatives 2γ3 and 3γ3. (E) Activated HUVEC were incubated for 30 min at 37° C. in the presence of FITC-labeled 2γ3 polystyrene carriers after 15 min pre-treatment with 3 mM amiloride to block ICAM-1-mediated endocytosis, or 0.1 μM PMA to activate PKC and promote ICAM-1-mediated endocytosis.” left out, “Mean±SEM; n=2 assays. **p<0.005, ***p<0.001, by student's t test.” left out

Data set [3] concerns the target T3, ICAM-1 in the vascular endothelium (Mus musculus, UniProt P13597).
T3 construct: from tissue
The experiment in a line: Lodging of fibrin microemboli in the vasculature of mice. It is filed as in vivo. Here is the method:
C57Bl/6 mice were first injected intravenously with γ3 to block ICAM-1 in the vascular endothelium in organs. Alternatively, injections of saline or anti-ICAM were used as controls. Fifteen minutes later the mice were injected with fibrin clots (microemboli around 3-5 micrometer) generated in the lab by established procedures.
Following microemboli administration, the microemboli amounts were measured in a gamma counter and calculated as percent of injected dose in circulation or localization ratio (the percent injected dose/gram in an organ divided by percent injected dose/gram in blood). FIG. 10(A) is a graphical illustration of the amount of microemboli in circulation in blood, as evaluated at 1 min after injection and FIG. 10(B) is a graphical illustration of the amount of microemboli lodging in the vasculature of the kidneys and spleen at 15 min after injection.

Ends that are not written are not given here.

T3 sequence (P13597 28-537): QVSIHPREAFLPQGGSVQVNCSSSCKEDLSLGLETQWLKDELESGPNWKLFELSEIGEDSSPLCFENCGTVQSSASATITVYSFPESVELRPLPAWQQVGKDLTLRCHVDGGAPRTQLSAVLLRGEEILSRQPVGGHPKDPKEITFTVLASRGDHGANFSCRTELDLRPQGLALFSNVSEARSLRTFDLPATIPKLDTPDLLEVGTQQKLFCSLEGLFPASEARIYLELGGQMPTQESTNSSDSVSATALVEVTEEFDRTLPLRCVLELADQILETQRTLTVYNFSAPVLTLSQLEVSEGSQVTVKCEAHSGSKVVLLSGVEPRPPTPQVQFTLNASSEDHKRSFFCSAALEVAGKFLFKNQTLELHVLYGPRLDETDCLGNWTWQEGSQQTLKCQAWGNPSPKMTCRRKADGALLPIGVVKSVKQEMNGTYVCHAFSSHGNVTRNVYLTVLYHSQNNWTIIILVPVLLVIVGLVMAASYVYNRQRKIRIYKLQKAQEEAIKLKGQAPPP

What is called Papp A→B is how fast a substance crosses the layer from the apical side. The compound “^125I-albumin: radiolabelled bovine serum albumin, standard for passive transport” registered a Papp A→B in the data set with Caco-2 monolayers (Caco-2) of 0.03 ± 20000 ×10⁻⁶ cm/s.

As to “YPFLPTA (phage display-derived peptide B10) [also tested as phage clone]”, the “Leukocyte transmigration across endothelial cells” value with ICAM-1 on HUVEC was “inhibit leukocyte transmigration”. Besides, the “Internalization of phage viruses by endothelial cells” value with mouse endothelial cells was “not”.

A word on the inhibition: it is the change of the read-out against control, counted positive when it falls. `N=C(N)NC(=O)c1nc(Cl)c(N)nc1N` [amiloride, reference compound]: the “Uptake of anti-ICAM carriers in presence of amiloride” value in the data set with Caco-2 cells is listed as 20 % of the control value. Besides, the “Reduction of transport of 125I-anti-ICAM carriers by amiloride” value with Caco-2 monolayers (3 h) is on record as “about 50%”. Further, in the data set with mouse endothelial cells (Mus musculus, Endothelial cell, phages A1, B7, B9, D6, 3 mM amiloride, read-out: Inhibition of phage internalization by amiloride), the inhibition at 3000 µM fell in the range of 41 to 59%. Moreover, in the data set on HUVEC (3 mM amiloride or 0.1 μM PMA pre-treatment), the “Effect of modulator on endocytic transport of peptide carriers” value was “inhibited”.

As for “FSPHSRT (phage display-derived peptide B9) [also tested as phage clone]”, in the data set on ICAM-1 on HUVEC, the “Leukocyte transmigration across endothelial cells” value is “inhibit leukocyte transmigration”. The “Inhibition of binding of anti-ICAM nanocarriers to human endothelial cells” value in data set [1] is reported as around 80 % inhibition.

For “GCKLCAQ (phage display-derived peptide D6) [also tested as phage clone]”, the “Leukocyte transmigration across endothelial cells” value in the data set on ICAM-1 on HUVEC is given as “inhibit leukocyte transmigration”.

As for “NNQKLVNIKEKVAQIEA (fibrinogen-derived 3-gamma-3) [3γ3]”, the “Binding, internalization and lysosomal transport of carriers” value with HUVEC was “similar”.

As to “NNQKIVNIKEKVAQIEA (fibrinogen-derived 2-gamma-3) [2γ3]”, the “Binding, internalization and lysosomal transport of carriers” value in the data set on HUVEC is reported as “similar”.

Regarding GSLLSAA [B8, GSLLSAA], the “Leukocyte transmigration across endothelial cells” value in the data set on ICAM-1 on HUVEC was “inhibit leukocyte transmigration”. In data set [1], the “Inhibition of binding of anti-ICAM nanocarriers to human endothelial cells” value was “at some extent”. Moreover, the “Internalization of phage viruses by endothelial cells” value with mouse endothelial cells is recorded as “not”.

Regarding “NNQKIVNLKEKVAQLEA (fibrinogen-derived gamma-3) [γ3]”, in data set [2], the “Effect of excess free competitor in the media on targeting of γ3/ASM carriers to endothelial cells” value is “suppressed”. Moreover, the “Fibrin microemboli in circulation” value in data set [3] (1 min after microemboli injection) is listed as “remain in circulation”. Further, the “Microemboli lodging in organs” value in data set [3] (kidneys and spleen, 15 min after injection) is on record as “attenuating microemboli lodging in organs”.

Turning to `O=C[C@@H](O)[C@@H](O)[C@H](O)[C@H](O)COP(=O)(O)O` [mannose-6-phosphate, reference compound], the “Effect of excess free competitor in the media on targeting of γ3/ASM carriers to endothelial cells” value in data set [2] is “did not compete”.

Take “YQATPLP (phage display-derived peptide B7) [also tested as phage clone]”: in the data set on ICAM-1 on HUVEC, the “Leukocyte transmigration across endothelial cells” value is “inhibit leukocyte transmigration”.
